This note sets out measurements from US20220259593A1, “CONTROL OF MAMMALIAN GENE DOSAGE USING CRISPR” (The Regents of the University of California, priority 2019, published 2022).

For series [1], the system named is K562 CRISPRi cells. In words: Perturb-seq pooled growth measurement (sgRNA counts, growth phenotype γ, relative activity). The class given is cell-based, human. The note with it: γ relative to perfectly matched sgRNA (_00) of the same gene, day 10.
In series [2] the test system is K562 CRISPRi cells. Described as above. The class given is cell-based, human. As to conditions: for gamma_day5 / gamma_day10: pooled growth phenotype γ of the Perturb-seq sgRNA; for gamma_day5: day 5, K562 CRISPRi cells; for gamma_day10: day 10, K562 CRISPRi cells; for relative_activity_day5: γ relative to perfectly matched sgRNA (_00) of the same gene, day 5. The gist of the method:
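CRISPRi K562 cells from the Perturb-seq transduced pool; 500,000-cell samples taken days two, seven and twelve post-transduction. sgRNA amplicons from genomic DNA sequenced; growth phenotypes from normalized sgRNA abundances at days seven and twelve versus day two. Relative activity assigned from day seven (five days' growth).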

For “EIF2S1_ −_67827080.23-P1P2_00 (guide GAGCGAAGCGCACGCTGAGG; listed as DNA, chemistry not fully specified)”, the relative_activity_day10 in the series on K562 CRISPRi cells [1] was determined as 1. In the series on K562 CRISPRi cells [2], the gamma_day5 is reported as −0.9047, the gamma_day10 is reported as −0.5155 and the relative_activity_day5 is 1.
In the series on K562 CRISPRi cells [1], “EIF2S1_ −_67827080.23-P1P2_01 (guide GAGCGAAACGCACGCTGAGG; listed as DNA, chemistry not fully specified)” displayed a relative_activity_day10 of 0.5881. In addition, in the series with K562 CRISPRi cells [2], the gamma_day5 is on record as −0.4467, the gamma_day10 is on record as −0.3032 and the relative_activity_day5 is listed as 0.4937.
The matching figures for “EIF2S1_ −_67827080.23-P1P2_02 (guide GAGCGCAGCGCACGCTGAGG; listed as DNA, chemistry not fully specified)”: 0.8838, −0.7288, −0.4556 and 0.8055.
The matching figures for “EIF2S1_ −_67827080.23-P1P2_06 (guide GAGCGAAGCGCGCGCTGAGG; listed as DNA, chemistry not fully specified)”: 0.7051, −0.6688, −0.3635 and 0.7393.
The matching figures for “EIF2S1_ −_67827080.23-P1P2_07 (guide GAGCGAAGCGCTCGCTGAGG; listed as DNA, chemistry not fully specified)”: 0.07767, −0.08307, −0.04004 and 0.09182.
Substance “GATA1 −_48645022.23-P1P2_12 (guide GTGAGCTTGCCACATCCGCA; listed as DNA, chemistry not fully specified)” yielded a relative_activity_day10 in the series on K562 CRISPRi cells [1] of 0.1028. In the series on K562 CRISPRi cells [2], the gamma_day5 is on record as −0.1084, the gamma_day10 was −0.06327 and the relative_activity_day5 amounted to 0.1126.
Consider “GATA1_ −_48645022.23-P1P2_00 (guide GTGAGCTTGCCACATCCCCA; listed as DNA, chemistry not fully specified)”, for which the relative_activity_day10 with K562 CRISPRi cells [1] is recorded as 1. In the series on K562 CRISPRi cells [2], this substance had a gamma_day5 of −0.9627, a gamma_day10 of −0.6153 and a relative_activity_day5 of 1.
“GATA1_ −_48645022.23-P1P2_03 (guide GTGCGCTTGCCACATCCCCA; listed as DNA, chemistry not fully specified)” displayed a relative_activity_day10 with K562 CRISPRi cells [1] of 1.017. In the series on K562 CRISPRi cells [2], the gamma_day5 is on record as −0.9855, the gamma_day10 is recorded as −0.6259 and the relative_activity_day5 was 1.024.
Substance “GATA1_ −_48645022.23-P1P2_04 (guide GTGAGCTTACCACATCCCCA; listed as DNA, chemistry not fully specified)” showed a relative_activity_day10 in the series with K562 CRISPRi cells [1] of 0.9804. Also, in the series on K562 CRISPRi cells [2], the gamma_day5 was −0.9313, the gamma_day10 is given as −0.6032 and the relative_activity_day5 is given as 0.9673.
The like results for “GATA1_ −_48645022.23-P1P2_06 (guide GTGAGCTTGCGACATCCCCA; listed as DNA, chemistry not fully specified)” were, in that order, 0.5666, −0.5073, −0.3486 and 0.5269.
The matching figures for “GATA1_ −_48645022.23-P1P2_08 (guide GTGAGCTTTCCACATCCCCA; listed as DNA, chemistry not fully specified)”: 0.7953, −0.7632, −0.4893 and 0.7928.
On to “GINS1_ −_25388381.23-P1P2_00 (guide GGACTAGAACGAAAGGAGTG; listed as DNA, chemistry not fully specified)”, for which the relative_activity_day10 with K562 CRISPRi cells [1] amounted to 1. For the same substance, in the series with K562 CRISPRi cells [2], the gamma_day5 is given as −0.9993, the gamma_day10 is reported as −0.7125 and the relative_activity_day5 stood at 1.
With “GINS1_ −_25388381.23-P1P2_03 (guide GGACTATAACGAAAGGAGTG; listed as DNA, chemistry not fully specified)”, in the series on K562 CRISPRi cells [1], the relative_activity_day10 stood at 0.6733. Also, in the series on K562 CRISPRi cells [2], the gamma_day5 was −0.7467, the gamma_day10 is −0.4797 and the relative_activity_day5 is reported as 0.7472.
In the series with K562 CRISPRi cells [1], “GINS1_ −_25388381.23-P1P2_06 (guide GGACTAGAACGGAAGGAGTG; listed as DNA, chemistry not fully specified)” came in with a relative_activity_day10 of 0.9191. In the series on K562 CRISPRi cells [2], this substance yielded a gamma_day5 of −0.9794, a gamma_day10 of −0.6548 and a relative_activity_day5 of 0.9801.
The like results for “GINS1_ −_25388381.23-P1P2_08 (guide GGACTAGAGCGAAAGGAGTG; listed as DNA, chemistry not fully specified)” were, in that order, 0.9436, −1.039, −0.6723 and 1.039.
On to “GINS1_ −_25388381.23-P1P2_14 (guide GGACTAGAACGAAAGGAGCG; listed as DNA, chemistry not fully specified)”, for which the relative_activity_day10 in the series with K562 CRISPRi cells [1] is on record as 0.3662. Also, in the series with K562 CRISPRi cells [2], the gamma_day5 was −0.3535, the gamma_day10 was −0.2609 and the relative_activity_day5 amounted to 0.3537.
The matching figures for “GNB2L1_ + _180670873.23-P1P2_00 (guide GTGCAAGGCGGCGGCAGGAG; listed as DNA, chemistry not fully specified)”: 1, −0.2908, −0.3054 and 1.
Substance “GNB2L1_ + _180670873.23-P1P2_02 (guide GTGCAAGACGGCGGCAGGAG; listed as DNA, chemistry not fully specified)” showed a relative_activity_day10 in the series on K562 CRISPRi cells [1] of 0.4167. In the series on K562 CRISPRi cells [2], this substance showed a gamma_day5 of −0.1438, a gamma_day10 of −0.1273 and a relative_activity_day5 of 0.4945.
The matching figures for “GNB2L1_ + _180670873.23-P1P2_07 (guide GTGCAAGGCGGGGGCAGGAG; listed as DNA, chemistry not fully specified)”: 0.8948, −0.38, −0.2733 and 1.307.
The matching figures for “GNB2L1_ + _180670873.23-P1P2_08 (guide GTGCAAGGTGGCGGCAGGAG; listed as DNA, chemistry not fully specified)”: 1.033, −0.3061, −0.3155 and 1.052.
The like results for “GNB2L1_ + _180670873.23-P1P2_13 (guide GTGCAAGGCGGCGGCGGGAG; listed as DNA, chemistry not fully specified)” were, in that order, 0.6791, −0.2097, −0.2074 and 0.7211.
In the series with K562 CRISPRi cells [1], “HSPA5_ + _128003624.23-P1P2_00 (guide GAGCCGAGTAGGCGACGGTG; listed as DNA, chemistry not fully specified)” returned a relative_activity_day10 of 1. For the same substance, in the series on K562 CRISPRi cells [2], the gamma_day5 is −0.7476, the gamma_day10 is listed as −0.4272 and the relative_activity_day5 stood at 1.
Regarding “HSPA5_ + _128003624.23-P1P2_01 (guide GAACCGAGTAGGCGACGGTG; listed as DNA, chemistry not fully specified)”, the relative_activity_day10 in the series with K562 CRISPRi cells [1] was found to be 0.8774. Also, in the series on K562 CRISPRi cells [2], the gamma_day5 is −0.6373, the gamma_day10 is on record as −0.3748 and the relative_activity_day5 was 0.8525.
In the series on K562 CRISPRi cells [1], “HSPA5_ + _128003624.23-P1P2_04 (guide GAGCCGAGAAGGCGACGGTG; listed as DNA, chemistry not fully specified)” returned a relative_activity_day10 of 0.989. In the series with K562 CRISPRi cells [2], the gamma_day5 was −0.7544, the gamma_day10 is recorded as −0.4225 and the relative_activity_day5 is given as 1.009.
The matching figures for “HSPA5_ + _128003624.23-P1P2_06 (guide GAGCCGAGTAGACGACGGTG; listed as DNA, chemistry not fully specified)”: 0.2302, −0.1192, −0.09835 and 0.1594.
The like results for “HSPA5_ + _128003624.23-P1P2_08 (guide GAGCCGAGTGGGCGACGGTG; listed as DNA, chemistry not fully specified)” were, in that order, 1.038, −0.7566, −0.4435 and 1.012.
The like results for “HSPA9_ −_137911079.23-P1P2_00 (guide GGAGCTGCGCGATGCGGTGG; listed as DNA, chemistry not fully specified)” were, in that order, 1, −0.95, −0.5892 and 1.
In turn, “HSPA9_ −_137911079.23-P1P2_02 (guide GGAGTTGCGCGATGCGGTGG; listed as DNA, chemistry not fully specified)” yielded a relative_activity_day10 in the series on K562 CRISPRi cells [1] of 0.6835. In the series with K562 CRISPRi cells [2], the gamma_day5 was −0.6504, the gamma_day10 is reported as −0.4027 and the relative_activity_day5 was found to be 0.6846.
